From ChEMBL document CHEMBL5523722, “Design, Synthesis, and Activity Evaluation of Novel Benzazole Bifunctional Antifungal Inhibitors with an LDH Carrier” (J Med Chem, 2024)
Converted amounts (≈) assume the structure as drawn.

How the values were obtained:
[1] = test system: Candida albicans; test: microbe, parasite or virus in culture; conditions: 17#, 64 h
Description: Antifungal activity against fluconazole-resistant Candida albicans 17# assessed as inhibition of fungal growth incubated for 64 hrs by liquid medium dilution method

[2] = test system: Candida albicans; test: microbe, parasite or virus in culture; conditions: CaR, 64 h
Description: Antifungal activity against fluconazole-resistant Candida albicans CaR assessed as inhibition of fungal growth incubated for 64 hrs by liquid medium dilution method

[3] = test system: Candida albicans; test: microbe, parasite or virus in culture; conditions: Candida albicans, 632, 64 h
Description: Antifungal activity against fluconazole-resistant Candida albicans 632 assessed as inhibition of fungal growth incubated for 64 hrs by liquid medium dilution method

[4] = test system: Candida albicans; test: microbe, parasite or virus in culture; conditions: Candida albicans, 904, 64 h
Description: Antifungal activity against fluconazole-resistant Candida albicans 904 assessed as inhibition of fungal growth incubated for 64 hrs by liquid medium dilution method

[5] = test system: Aspergillus fumigatus; test: microbe, parasite or virus in culture; conditions: KM8001, 64 h
Description: Antifungal activity against Aspergillus fumigatus KM8001 assessed as inhibition of fungal growth incubated for 64 hrs by liquid medium dilution method

[6] = test system: Candida albicans; test: microbe, parasite or virus in culture; conditions: Candida albicans, 901, 64 h
Description: Antifungal activity against fluconazole-resistant Candida albicans 901 assessed as inhibition of fungal growth incubated for 64 hrs by liquid medium dilution method

[7] = test system: Candida tropicalis; test: microbe, parasite or virus in culture; conditions: ATCC 1369, 64 h
Description: Antifungal activity against Candida tropicalis ATCC 1369 assessed as inhibition of fungal growth incubated for 64 hrs by liquid medium dilution method

[8] = test system: Candida albicans; test: microbe, parasite or virus in culture; conditions: ATCC SC5314, 64 h
Description: Antifungal activity against Candida albicans ATCC SC5314 assessed as inhibition of fungal growth incubated for 64 hrs by liquid medium dilution method

[9] = test system: Cryptococcus neoformans; test: microbe, parasite or virus in culture; conditions: ZKCC 2209, 64 h
Description: Antifungal activity against Cryptococcus neoformans ZKCC 2209 assessed as inhibition of fungal growth incubated for 64 hrs by liquid medium dilution method

[10] = biological target: Lanosterol 14-alpha demethylase (Candida albicans (strain SC5314 / ATCC MYA-2876) (Yeast), UniProt P10613)
Chain of Lanosterol 14-alpha demethylase (P10613 whole entry): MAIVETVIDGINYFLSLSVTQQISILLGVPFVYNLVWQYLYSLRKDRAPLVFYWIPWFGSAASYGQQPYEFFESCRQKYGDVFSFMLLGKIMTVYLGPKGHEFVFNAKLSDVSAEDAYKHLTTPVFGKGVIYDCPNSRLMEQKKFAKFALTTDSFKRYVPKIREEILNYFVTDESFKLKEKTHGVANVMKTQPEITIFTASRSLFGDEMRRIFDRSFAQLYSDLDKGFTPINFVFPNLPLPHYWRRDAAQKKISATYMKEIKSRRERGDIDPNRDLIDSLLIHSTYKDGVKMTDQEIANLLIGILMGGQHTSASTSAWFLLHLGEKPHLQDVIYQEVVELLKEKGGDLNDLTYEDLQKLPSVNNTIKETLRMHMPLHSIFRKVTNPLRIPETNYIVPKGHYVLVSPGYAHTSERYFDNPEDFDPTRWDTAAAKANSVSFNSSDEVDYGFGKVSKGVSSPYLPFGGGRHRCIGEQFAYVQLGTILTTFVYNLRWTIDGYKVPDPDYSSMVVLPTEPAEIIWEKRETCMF
Description: Inhibition of candida albicans CYP51 14alpha demethylase activity incubated for 30 mins by HPLC analysis

[11] = test system: Nakaseomyces glabratus; test: microbe, parasite or virus in culture; conditions: 64 h
Description: Antifungal activity against Candida glabrata assessed as inhibition of fungal growth incubated for 64 hrs by liquid medium dilution method

Row | Structure (SMILES) | MIC50 [1] [µg/mL] | MIC50 [2] [µg/mL] | MIC50 [3] [µg/mL] | MIC50 [4] [µg/mL] | MIC50 [5] [µg/mL] | MIC50 [6] [µg/mL] | MIC50 [7] [µg/mL] | MIC50 [8] [µg/mL] | MIC50 [9] [µg/mL] | IC50 [10] [nM] | MIC50 [11] [µg/mL]
1 | Cc1c(CN2CCC(NCC(O)(Cn3ccnc3)c3ccc(Cl)cc3Cl)CC2)cccc1-c1ccccc1 (centres undefined) | 2 (≈ 3.64 µM) | 4 (≈ 7.28 µM) | 2 (≈ 3.64 µM) | 2 (≈ 3.64 µM) | 4 (≈ 7.28 µM) | 4 (≈ 7.28 µM) | 0.5 (≈ 0.91 µM) | 0.125 (≈ 0.227 µM) | 1 (≈ 1.82 µM) | 157 | 0.5 (≈ 0.91 µM)
2 | Cc1c(CN2CCC(NCC(O)(Cn3ccnc3)c3ccc(Cl)cc3)CC2)cccc1-c1ccccc1 (centres undefined) |  |  |  |  | 4 (≈ 7.77 µM) |  | 0.5 (≈ 0.971 µM) | 0.25 (≈ 0.485 µM) | 2 (≈ 3.88 µM) |  | 1 (≈ 1.94 µM)
3 | O=C(NCC(Cc1ccccc1)Cn1ccnc1)C1CCCN(Cc2ccc(-c3ccccc3)cc2)C1 (centres undefined) |  |  |  |  | ≥ 8 |  | 2 (≈ 4.06 µM) | 1 (≈ 2.03 µM) | 4 (≈ 8.12 µM) |  | 0.5 (≈ 1.01 µM)
4 | CC(=O)N1CCN(c2ccc(OCC3COC(Cn4ccnc4)(c4ccc(Cl)cc4Cl)O3)cc2)CC1 (centres undefined) [KETOCONAZOLE] | 2 (≈ 3.76 µM) | 4 (≈ 7.53 µM) | ≥ 8 | ≥ 8 | 4 (≈ 7.53 µM) | 4 (≈ 7.53 µM) | 0.25 (≈ 0.47 µM) | 0.25 (≈ 0.47 µM) | 1 (≈ 1.88 µM) |  | 0.5 (≈ 0.941 µM)
5 | Cc1c(CN2CCC(NCC(O)(Cn3cncn3)c3ccc(Cl)cc3)CC2)cccc1-c1ccccc1 (centres undefined) | 1 (≈ 1.94 µM) | 2 (≈ 3.88 µM) | 1 (≈ 1.94 µM) | 2 (≈ 3.88 µM) | 2 (≈ 3.88 µM) | 2 (≈ 3.88 µM) | 0.25 (≈ 0.484 µM) | 0.25 (≈ 0.484 µM) | 0.5 (≈ 0.969 µM) | 113 | 0.25 (≈ 0.484 µM)
6 | Cc1c(CN2CCCC(C(=O)NCC(O)(Cn3cncn3)c3ccc(Cl)cc3Cl)C2)cccc1-c1ccccc1 (centres undefined) |  |  |  |  | ≥ 8 |  | 2 (≈ 3.46 µM) | 0.5 (≈ 0.864 µM) | 4 (≈ 6.91 µM) |  | 0.5 (≈ 0.864 µM)
7 | Cc1c(CN2CCC(NCC(O)(Cn3cncn3)c3ccc(Cl)cc3Cl)CC2)cccc1-c1ccccc1 (centres undefined) |  |  |  |  | 4 (≈ 7.27 µM) |  | 2 (≈ 3.63 µM) | 0.5 (≈ 0.908 µM) | 2 (≈ 3.63 µM) |  | 1 (≈ 1.82 µM)
8 | Cc1c(CN2CCCC(C(=O)NCC(O)(Cn3ccnc3)c3ccc(Cl)cc3)C2)cccc1-c1ccccc1 (centres undefined) |  |  |  |  | ≥ 8 |  | 2 (≈ 3.68 µM) | 1 (≈ 1.84 µM) | 4 (≈ 7.36 µM) |  | 1 (≈ 1.84 µM)
9 | Cc1c(CN2CCC(CNCC(O)(Cn3cncn3)c3ccc(Cl)cc3Cl)CC2)cccc1-c1ccccc1 (centres undefined) |  |  |  |  | ≥ 8 |  | 2 (≈ 3.54 µM) | 2 (≈ 3.54 µM) | 2 (≈ 3.54 µM) |  | 1 (≈ 1.77 µM)
10 | Cc1c(CN2CCCC(C(=O)NCC(O)(Cn3ccnc3)c3ccc(Cl)cc3Cl)C2)cccc1-c1ccccc1 (centres undefined) |  |  |  |  | ≥ 8 |  | 0.5 (≈ 0.866 µM) | 0.5 (≈ 0.866 µM) | ≥ 8 |  | 1 (≈ 1.73 µM)
11 | Cc1c(CN2CCC(CNCC(O)(Cn3ccnc3)c3ccc(Cl)cc3Cl)CC2)cccc1-c1ccccc1 (centres undefined) |  |  |  |  | 4 (≈ 7.1 µM) |  | 2 (≈ 3.55 µM) | 1 (≈ 1.77 µM) | 4 (≈ 7.1 µM) |  | 0.5 (≈ 0.887 µM)
12 | Cc1c(CN2CCCC(C(=O)NCC(O)(Cn3cncn3)c3ccc(Cl)cc3)C2)cccc1-c1ccccc1 (centres undefined) | 2 (≈ 3.68 µM) | ≥ 8 | 4 (≈ 7.35 µM) | 4 (≈ 7.35 µM) | 4 (≈ 7.35 µM) | ≥ 8 | 0.25 (≈ 0.459 µM) | 0.25 (≈ 0.459 µM) | 1 (≈ 1.84 µM) | 256 | 0.5 (≈ 0.919 µM)
13 | OC(Cn1cncn1)(Cn1cncn1)c1ccc(F)cc1F [FLUCONAZOLE] | ≥ 8 | ≥ 8 | ≥ 8 | ≥ 8 | ≥ 8 | ≥ 8 | 0.5 (≈ 1.63 µM) | 0.5 (≈ 1.63 µM) | 2 (≈ 6.53 µM) | 98 | 0.5 (≈ 1.63 µM)
14 | Cc1c(CN2CCCC(C(=O)NCC(Cc3ccccc3)Cn3ccnc3)C2)cccc1-c1ccccc1 (centres undefined) |  |  |  |  | 4 (≈ 7.89 µM) |  | 1 (≈ 1.97 µM) | 0.5 (≈ 0.987 µM) | 2 (≈ 3.95 µM) |  | 2 (≈ 3.95 µM)
15 | Cc1c(CN2CCC(CNCC(O)(Cn3ccnc3)c3ccc(Cl)cc3)CC2)cccc1-c1ccccc1 (centres undefined) |  |  |  |  | ≥ 8 |  | 1 (≈ 1.89 µM) | 1 (≈ 1.89 µM) | 2 (≈ 3.78 µM) |  | 0.5 (≈ 0.945 µM)
16 | O=C(NCC(Cc1ccccc1)Cn1cncn1)C1CCCN(Cc2ccc(-c3ccccc3)cc2)C1 (centres undefined) |  |  |  |  | 4 (≈ 8.1 µM) |  | 1 (≈ 2.03 µM) | 0.5 (≈ 1.01 µM) | 2 (≈ 4.05 µM) |  | 2 (≈ 4.05 µM)
17 | Cc1c(CN2CCCC(C(=O)NCC(Cc3ccccc3)Cn3cncn3)C2)cccc1-c1ccccc1 (centres undefined) |  |  |  |  | ≥ 8 |  | 0.5 (≈ 0.985 µM) | 0.25 (≈ 0.492 µM) | ≥ 8 |  | 0.5 (≈ 0.985 µM)
18 | Cc1c(CN2CCC(CNCC(O)(Cn3cncn3)c3ccc(Cl)cc3)CC2)cccc1-c1ccccc1 (centres undefined) |  |  |  |  | ≥ 8 |  | 0.5 (≈ 0.943 µM) | 0.5 (≈ 0.943 µM) | 4 (≈ 7.55 µM) |  | 1 (≈ 1.89 µM)
